Assay results reported in PubChem BioAssay (NCI).
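Following 48 hours of exposure in 96-well plates, responses at five concentrations were used to interpolate endpoints linearly. GI50 = concentration required for 50% inhibition of growth. TGI: total growth inhibition.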

Key:
Assay in all cases: NCI anticancer screen, dose series, 48 h
[1] = system: MDA-MB-435
[2] = system: NCI-H522 lung
[3] = system: HOP-62 NSCLC
[4] = system: SK-MEL-28 melanoma
[5] = system: U251 CNS
[6] = system: NCI/ADR-RES ovarian
[7] = system: IGROV1 ovarian
[8] = system: KM12 colon
[9] = system: OVCAR-8 ovarian
[10] = system: LOX IMVI melanoma
[11] = system: SK-MEL-2 melanoma
[12] = system: RPMI-8226 leukemia
[13] = system: SF-268 CNS
[14] = system: OVCAR-5 ovarian
[15] = system: COLO 205 colon
[16] = system: UACC-62 melanoma
[17] = system: SNB-19 CNS
[18] = system: HCT-116 colon
[19] = system: NCI-H226 lung
[20] = system: NCI-H23 lung
[21] = system: M14 melanoma
[22] = system: A498 renal
[23] = system: UO-31 renal
[24] = system: CCRF-CEM leukemia
[25] = system: RXF 393 renal
[26] = system: OVCAR-4 ovarian
[27] = system: HS 578T breast
[28] = system: TK-10 renal
[29] = system: SF-539 CNS
[30] = system: SW-620 colon
[31] = system: SF-295 CNS
[32] = system: UACC-257 melanoma
[33] = system: 786-0 renal
[34] = system: ACHN renal
[35] = system: HCT-15 colon
[36] = system: SK-MEL-5 melanoma
[37] = system: MOLT-4 leukemia
[38] = system: EKVX NSCLC
[39] = system: MCF7 breast
[40] = system: DU-145 prostate
[41] = system: SK-OV-3 ovarian
[42] = system: BT-549 breast
[43] = system: HCC-2998 colon
[44] = system: OVCAR-3 ovarian
[45] = system: T-47D breast
[46] = system: PC-3 prostate
[47] = system: K-562 leukemia
[48] = system: HOP-92 NSCLC
[49] = system: CAKI-1 renal
[50] = system: MDA-MB-231 breast
[51] = system: HL-60(TB) leukemia
[52] = system: A549 NSCLC
[53] = system: NCI-H460 lung
[54] = system: SN12C renal
[55] = system: HT29 colon
[56] = system: SNB-75 CNS
[57] = system: MALME-3M melanoma

`Cc1cc(N2CCCC2)nc(NC2CCCC(Nc3ccnc4cc(Cl)ccc34)C2)n1` (stereo not given) gave a GI50 [1] of 1560 nM, a TGI [1] of 3110 nM and a GI50 [2] of 1580 nM. It also gave a TGI [2] of 3210 nM, a GI50 [3] of 1320 nM and a TGI [3] of 2950 nM. For the same compound, the GI50 [4] was 1770 nM, the TGI [4] was 3430 nM and the GI50 [5] was 1480 nM. The TGI [5] was 2860 nM, the GI50 [6] was 1780 nM and the TGI [6] was 5690 nM. The GI50 [7] was 967 nM, the TGI [7] was 3200 nM and the GI50 [8] was 1500 nM. The TGI [8] was 3890 nM, the GI50 [9] was 1920 nM and the TGI [9] was 4390 nM. The GI50 [10] was 681 nM, the TGI [10] was 2100 nM and the GI50 [11] was 1700 nM. The TGI [11] was 3270 nM, the GI50 [12] was 322 nM and the TGI [12] was 1400 nM. For the same compound, the GI50 [13] was 1190 nM, the TGI [13] was 3460 nM and the GI50 [14] was 1450 nM. It also gave a TGI [14] of 4260 nM, a GI50 [15] of 1460 nM and a TGI [15] of 3350 nM. The GI50 [16] was 1920 nM, the TGI [16] was 3570 nM and the GI50 [17] was 1460 nM. It also gave a TGI [17] of 3440 nM, a GI50 [18] of 442 nM and a TGI [18] of 1680 nM. The GI50 [19] was 1910 nM, the TGI [19] was 3920 nM and the GI50 [20] was 1590 nM. It also gave a TGI [20] of 4140 nM, a GI50 [21] of 1140 nM and a TGI [21] of 2510 nM. For the same compound, the GI50 [22] was 1910 nM, the TGI [22] was 3480 nM and the GI50 [23] was 1050 nM. For the same compound, the TGI [23] was 2290 nM, the GI50 [24] was 408 nM and the TGI [24] was 3370 nM. The GI50 [25] was 1330 nM, the TGI [25] was 2710 nM and the GI50 [26] was 1520 nM. For the same compound, the TGI [26] was 5270 nM, the GI50 [27] was 2000 nM and the TGI [27] was 4720 nM. It also gave a GI50 [28] of 2550 nM, a TGI [28] of 4560 nM and a GI50 [29] of 1260 nM. It also gave a TGI [29] of 2620 nM, a GI50 [30] of 1270 nM and a TGI [30] of 3250 nM. For the same compound, the GI50 [31] was 1470 nM, the TGI [31] was 2890 nM and the GI50 [32] was 1990 nM. The TGI [32] was 3760 nM, the GI50 [33] was 1450 nM and the TGI [33] was 2870 nM. It also gave a GI50 [34] of 1270 nM, a TGI [34] of 2790 nM and a GI50 [35] of 1020 nM. The TGI [35] was 2440 nM, the GI50 [36] was 1690 nM and the TGI [36] was 3090 nM. It also gave a GI50 [37] of 478 nM, a TGI [37] of 3130 nM and a GI50 [38] of 1860 nM. For the same compound, the TGI [38] was 5020 nM, the GI50 [39] was 563 nM and the TGI [39] was 2630 nM. It also gave a GI50 [40] of 1240 nM, a TGI [40] of 2770 nM and a GI50 [41] of 1860 nM. The TGI [41] was 3490 nM, the GI50 [42] was 1800 nM and the TGI [42] was 3350 nM. It also gave a GI50 [43] of 1120 nM, a TGI [43] of 2680 nM and a GI50 [44] of 1670 nM. For the same compound, the TGI [44] was 4210 nM, the GI50 [45] was 1710 nM and the TGI [45] was 4830 nM.
`O=C(N/N=C/c1ccccc1Cl)c1ccccc1Nc1ccnc(C(F)(F)F)c1` was tested, and the GI50 [1] was 1710 nM, the TGI [1] was 6810 nM and the GI50 [46] was 1830 nM. It also gave a TGI [46] of 9600 nM, a GI50 [2] of 1980 nM and a TGI [2] of 6740 nM. It also gave a GI50 [47] of 2160 nM, a GI50 [48] of 1690 nM and a TGI [48] of 6170 nM. It also gave a GI50 [3] of 1310 nM, a TGI [3] of 8180 nM and a GI50 [4] of 2390 nM. The TGI [4] was 27600 nM, the GI50 [49] was 389 nM and the TGI [49] was 2720 nM. It also gave a GI50 [5] of 1150 nM, a TGI [5] of 6180 nM and a GI50 [50] of 1930 nM. It also gave a TGI [50] of 6940 nM, a GI50 [6] of 2160 nM and a TGI [6] of 9320 nM. For the same compound, the GI50 [7] was 1870 nM, the TGI [7] was 10300 nM and the GI50 [8] was 1990 nM. The TGI [8] was 6660 nM, the GI50 [51] was 1710 nM and the GI50 [52] was 3010 nM. For the same compound, the TGI [52] was 8910 nM, the GI50 [9] was 2290 nM and the TGI [9] was 8080 nM. For the same compound, the GI50 [10] was 1330 nM, the TGI [10] was 5210 nM and the GI50 [11] was 1790 nM. It also gave a TGI [11] of 5020 nM, a GI50 [12] of 470 nM and a TGI [12] of 2740 nM. For the same compound, the GI50 [13] was 1800 nM, the TGI [13] was 10500 nM and the GI50 [14] was 2750 nM. The TGI [14] was 17300 nM, the GI50 [15] was 1550 nM and the TGI [15] was 3250 nM. For the same compound, the GI50 [16] was 976 nM, the TGI [16] was 3720 nM and the GI50 [17] was 2400 nM. The TGI [17] was greater than 61200 nM, the GI50 [53] was 768 nM and the TGI [53] was 2380 nM. The GI50 [18] was 637 nM, the TGI [18] was 3270 nM and the GI50 [19] was 811 nM. It also gave a TGI [19] of 3520 nM, a GI50 [20] of 1820 nM and a TGI [20] of 8180 nM. It also gave a GI50 [21] of 1630 nM, a TGI [21] of 7190 nM and a GI50 [22] of 1760 nM. The TGI [22] was 5990 nM, the GI50 [23] was 1920 nM and the TGI [23] was 6490 nM. The GI50 [24] was 320 nM, the TGI [24] was 1760 nM and the GI50 [25] was 174 nM. It also gave a TGI [25] of 1100 nM, a GI50 [54] of 1270 nM and a TGI [54] of 12700 nM. For the same compound, the GI50 [26] was 1320 nM, the TGI [26] was greater than 100000 nM and the GI50 [27] was 1820 nM. It also gave a TGI [27] of 7230 nM, a GI50 [28] of 673 nM and a TGI [28] of 3870 nM. It also gave a GI50 [29] of 1600 nM, a TGI [29] of 3700 nM and a GI50 [30] of 1530 nM. The TGI [30] was 14500 nM, the GI50 [31] was 354 nM and the TGI [31] was 1330 nM. For the same compound, the GI50 [55] was 3560 nM, the TGI [55] was greater than 100000 nM and the GI50 [32] was 2610 nM. The TGI [32] was 5580 nM, the GI50 [33] was 616 nM and the TGI [33] was 3530 nM. It also gave a GI50 [34] of 1160 nM, a TGI [34] of 4720 nM and a GI50 [35] of 430 nM. The TGI [35] was 3950 nM, the GI50 [36] was 627 nM and the TGI [36] was 2710 nM. For the same compound, the GI50 [56] was 2410 nM, the TGI [56] was 26700 nM and the GI50 [38] was 1650 nM. It also gave a TGI [38] of 5940 nM, a GI50 [39] of 706 nM and a TGI [39] of 4520 nM. It also gave a GI50 [40] of 2500 nM, a TGI [40] greater than 26500 nM and a GI50 [41] of 1430 nM. The TGI [41] was 5310 nM, the GI50 [42] was 1770 nM and the TGI [42] was 7130 nM. It also gave a GI50 [43] of 1740 nM, a TGI [43] of 7240 nM and a GI50 [44] of 832 nM. For the same compound, the TGI [44] was 3680 nM, the GI50 [57] was 1550 nM and the TGI [57] was 4940 nM. For the same compound, the GI50 [45] was 1330 nM and the TGI [45] was 6410 nM.
